Source: paper PMC10304650 (Journal of medicinal chemistry, 2023)

Key:
[1] = test system: bladder cancer cell lines; test: Cell proliferation, CellTiter-Glo, 72 hours; type: cell-based, human; conditions: three bladder cancer cell lines
[2] = test system: phosphorylation of 4E-BP1 in T24 cells; test: Phosphorylation of 4E-BP1 by western blot; type: cell-based, human; conditions: 1 μM, 24h
97 kinases = test: KINOMEscan profiling; type: binding; conditions: 97 kinases examined
other CK1 isoforms = test: Specificity among CK1 isoforms; type: biochemical

Fc1ccc2[nH]c(CNc3nc(N4CCOCC4)nc4c3ncn4-c3ccc4ccccc4c3)nc2c1F [SR-4133, N-((4,5-difluoro-1H-benzo[d]imidazol-2-yl)methyl)-2-morpholino-9-(naphthalen-2-yl)-9Hpurin-6-amine]
Antiproliferative potency, EC50 [1]: high nanomolar
Inhibition of phosphorylation of T37/46, S65 and T70 of 4E-BP1 [2]: blocks the phosphorylation
KINOMEscan binding affinity (97 kinases): weak binding affinity only to CK1δ, PDGFRB, and TRKA
Inhibition of other CK1 isoforms (other CK1 isoforms): do not inhibit

COc1ccc(-n2cnc3c(NCc4nc5c(F)c(F)ccc5[nH]4)nc(N4CCOCC4)nc32)cc1 [SR-4310, N-((6,7-difluoro-1H-benzo[d]imidazol-2-yl)methyl)-9-(4-methoxyphenyl)-2-morpholino-9H-purin-6-amine]
Antiproliferative potency, EC50 [1]: nanomolar
Inhibition of other CK1 isoforms (other CK1 isoforms): do not inhibit
